The assay concerns CD2F1 mice, L1210 leukemia ip, survival T/C. The assay is described as follows: NCI In Vivo Anticancer Drug Screen. Data for tumor model L1210 Leukemia (intraperitoneal) in CD2F1 (CDF1) mice. The conditions noted are these: endpoint: mean survival time, higher = longer survival. The gist of the method:
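Transplantable tumor in mice; compound-treated vs vehicle-treated groups. Read-out = treated/control ratio of the measured endpoint.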

[1] abbreviates: dose: 100.0 mg/kg/injection, schedule: Q01DX001 (ip), vehicle: Klucel (hydroxypropylcellulose) (HPC).
The mark [2] stands for this setting: dose: 200.0 mg/kg/injection, schedule: Q01DX001 (ip), vehicle: Klucel (hydroxypropylcellulose) (HPC).
[3] abbreviates: dose: 400.0 mg/kg/injection, schedule: Q01DX001 (ip), vehicle: Klucel (hydroxypropylcellulose) (HPC).
[4] abbreviates: dose: 50.0 mg/kg/injection, schedule: Q01DX009 (ip), vehicle: saline with Tween-80.
The mark [5] stands for this setting: dose: 100.0 mg/kg/injection, schedule: Q01DX009 (ip), vehicle: saline with Tween-80.
[6] abbreviates: dose: 200.0 mg/kg/injection, schedule: Q01DX009 (ip), vehicle: saline with Tween-80.
The mark [7] stands for this setting: dose: 100.0 mg/kg/injection, schedule: Q04DX002 (ip), vehicle: saline with Tween-80.
Setting [8] is: dose: 200.0 mg/kg/injection, schedule: Q04DX002 (ip), vehicle: saline with Tween-80.
The mark [9] stands for this setting: dose: 400.0 mg/kg/injection, schedule: Q04DX002 (ip), vehicle: saline with Tween-80.
The mark [10] stands for this setting: dose: 12.5 mg/kg/injection, schedule: Q01DX009 (ip), vehicle: saline with Tween-80.
Setting [11] is: dose: 25.0 mg/kg/injection, schedule: Q01DX009 (ip), vehicle: saline with Tween-80.
Where [12] appears, read: dose: 100.0 mg/kg/injection, schedule: Q01DX001 (ip), vehicle: saline.
The mark [13] stands for this setting: dose: 200.0 mg/kg/injection, schedule: Q01DX001 (ip), vehicle: saline.
[14] abbreviates: dose: 200.0 mg/kg/injection, schedule: Q04DX003 (ip), vehicle: saline with Tween-80.
[15] abbreviates: dose: 400.0 mg/kg/injection, schedule: Q04DX003 (ip), vehicle: saline with Tween-80.
[16] abbreviates: dose: 100.0 mg/kg/injection, schedule: Q01DX001 (ip), vehicle: saline with Tween-80.
Where [17] appears, read: dose: 200.0 mg/kg/injection, schedule: Q01DX001 (ip), vehicle: saline with Tween-80.
The mark [18] stands for this setting: dose: 400.0 mg/kg/injection, schedule: Q01DX001 (ip), vehicle: saline with Tween-80.
Setting [19] is: dose: 100.0 mg/kg/injection, schedule: Q04DX003 (ip), vehicle: saline with Tween-80.
Where [20] appears, read: dose: 400.0 mg/kg/injection, schedule: Q01DX009 (ip), vehicle: saline with Tween-80.

“And” between values parts separate entries of the source, which are not always exact repeats. Equal entries are not always repeated. Toxic doses and inconclusive results are not listed.

In the case of `CCCCC(=O)/C=C/Sc1n[nH]c(=O)[nH]c1=O`, the T/C by setting is: (dose: 12.5 mg/kg/injection, schedule: Q01DX005 (ip), vehicle: distilled water + Tween-80) 104 % of control; (dose: 25.0 mg/kg/injection, schedule: Q01DX005 (ip), vehicle: distilled water + Tween-80) 93 % of control; (dose: 50.0 mg/kg/injection, schedule: Q01DX005 (ip), vehicle: distilled water + Tween-80) 90 % of control.

For the molecule `CCOC(=O)C1(C(=O)OCC)CCC(OCC)N1C(=O)c1ccccc1[N+](=O)[O-]` (stereo not drawn), the T/C by setting is: under setting [1], 100 % of control; under setting [2], 92 % of control; under setting [3], 92 % of control.

Turning to `Cc1c(C)c(O)c(Br)c(C)c1O` (tested in a mixture with another compound), the T/C (dose: 25.0 mg/kg/injection, schedule: Q04DX003 (ip), vehicle: other) is 100 % of control and the T/C (dose: 50.0 mg/kg/injection, schedule: Q04DX003 (ip), vehicle: other) was 94 % of control.

For `CN1C(/C(C(=O)C(F)(F)F)=C(\O)C(F)(F)F)=NCc2ccccc21`, the T/C (dose: 100.0 mg/kg/injection, schedule: Q04DX003 (ip), vehicle: Klucel (hydroxypropylcellulose) (HPC)) was 102 % of control; the T/C (dose: 200.0 mg/kg/injection, schedule: Q04DX003 (ip), vehicle: Klucel (hydroxypropylcellulose) (HPC)) was 98 % of control; the T/C (dose: 400.0 mg/kg/injection, schedule: Q04DX003 (ip), vehicle: Klucel (hydroxypropylcellulose) (HPC)) was 98 % of control.

As to `Clc1ccc(CCc2ccc(Cl)cc2)cc1`, the T/C is, setting by setting: under setting [4], 102 % of control; under setting [5], 98 % of control; under setting [6], 102 % of control.

Consider `CC(=O)NC(C)(NC(=O)CCl)C(=O)O` (stereo not drawn), for which the T/C runs as follows: under setting [7], 100 % of control; under setting [8], 96 % of control; under setting [9], 93 % of control.

On to `CN(C)N=Nc1ccc(/C=C/C(=O)O)cc1`, for which the T/C was 105 % of control (dose: 12.5 mg/kg/injection, schedule: Q01DX009 (ip), vehicle: Klucel (hydroxypropylcellulose) (HPC)); 111 % of control (dose: 25.0 mg/kg/injection, schedule: Q01DX009 (ip), vehicle: Klucel (hydroxypropylcellulose) (HPC)); 150 % of control (dose: 100.0 mg/kg/injection, schedule: Q01DX009 (ip), vehicle: Klucel (hydroxypropylcellulose) (HPC)).

Turning to `c1ccc2c(c1)c1ccccc1n2CCCCn1c2ccccc2c2ccccc21`, the T/C by setting is: under setting [10], 95 % of control; under setting [11], 87 % of control; under setting [4], 101 % of control and 102 % of control; under setting [5], 97 % of control; under setting [6], 93 % of control.

`Clc1ccc(-c2nnn3ccccc23)cc1`: the T/C is 107 % of control (dose: 12.5 mg/kg/injection, schedule: Q01DX001 (ip), vehicle: saline with Tween-80); 86 % of control (dose: 25.0 mg/kg/injection, schedule: Q01DX001 (ip), vehicle: saline with Tween-80); 97 % of control under setting [12]; 89 % of control under setting [13].

As for `CCCCCCCCCCCCCCCCOc1ccccc1CNc1cc(C(F)(F)F)ccc1Cl`, the T/C runs as follows: (dose: 100.0 mg/kg/injection, schedule: Q01DX009 (ip), vehicle: other) 89 % of control; (dose: 200.0 mg/kg/injection, schedule: Q01DX009 (ip), vehicle: other) 103 % of control; (dose: 400.0 mg/kg/injection, schedule: Q01DX009 (ip), vehicle: other) 91 % of control.

With `COC(=O)c1ccc(-n2cc(C(=O)OC)c([N+]#N)c2[O-])cc1`, the T/C was 107 % of control under setting [7]; 88 % of control under setting [8]; 93 % of control under setting [14]; 107 % of control under setting [9]; 93 % of control under setting [15].

With `CCCCCCCCCCOC(=O)COc1ccc(C(C)(C)C)cc1`, the T/C by setting is: under setting [10], 106 % of control; under setting [11], 97 % of control; under setting [4], 97 % of control.

For `Nc1ccc(N(S(=O)(=O)c2ccccc2)S(=O)(=O)c2ccccc2)c(Cl)c1`, the T/C under setting [16] is 96 % of control, the T/C under setting [17] is 98 % of control and the T/C under setting [18] was 96 % of control.

As for `O=S(=O)(Nc1ccc(O)cc1)c1ccccc1`, the T/C runs as follows: under setting [5], 103 % of control; under setting [19], 101 % of control; under setting [6], 95 % of control; under setting [14], 103 % of control; under setting [20], 95 % of control; under setting [15], 107 % of control.

With `NNC(=O)c1cc2ccccc2cc1O`, the T/C by setting is: under setting [5], 97 % of control; under setting [6], 86 % of control; under setting [20], 94 % of control.

As for `c1ccc2nc(-c3cc4ccccc4s3)ccc2c1`, the T/C is, setting by setting: under setting [5], 103 % of control; under setting [19], 107 % of control; under setting [6], 100 % of control; under setting [14], 101 % of control; under setting [20], 97 % of control; under setting [15], 96 % of control.

Consider `S=c1[nH]nc2n1NC(c1ccccc1)=NN2`, for which the T/C under setting [5] is 104 % of control; the T/C under setting [19] was 91 % of control; the T/C under setting [6] was 112 % of control; the T/C under setting [14] was 96 % of control; the T/C under setting [20] is 106 % of control; the T/C under setting [15] is 101 % of control.

Consider `O=C1c2ccccc2C(=O)N1c1c2ccccc2cc2ccccc12`, for which the T/C by setting is: under setting [5], 95 % of control; under setting [6], 101 % of control; under setting [20], 90 % of control.

On to `Cc1cn(C2CC(O)C(COC(N)=O)O2)c(=O)[nH]c1=O` (stereo not drawn), for which the T/C is 116 % of control under setting [1], 92 % of control under setting [2] and 104 % of control under setting [3].

Turning to `CC(=O)Oc1cc(Cl)c(Cl)cc1Cl`, the T/C is, setting by setting: under setting [16], 108 % of control; under setting [17], 97 % of control; under setting [18], 94 % of control.

Regarding `CCC(=O)C(c1ccccc1)(c1ccccc1)c1ccccc1`, the T/C (dose: 25.0 mg/kg/injection, schedule: Q04DX002 (ip), vehicle: other) was 98 % of control; the T/C (dose: 50.0 mg/kg/injection, schedule: Q04DX002 (ip), vehicle: other) is 95 % of control; the T/C (dose: 100.0 mg/kg/injection, schedule: Q04DX002 (ip), vehicle: other) is 95 % of control.

With `CC#CC#CC(=O)c1ccccc1`, the T/C runs as follows: (dose: 5.0 mg/kg/injection, schedule: Q01DX001 (ip), vehicle: saline) 97 % of control; (dose: 10.0 mg/kg/injection, schedule: Q01DX001 (ip), vehicle: saline) 100 % of control.

For `CCCCCCCCCCCSCCCCCCCCCCC`, the T/C by setting is: under setting [5], 104 % of control; under setting [19], 98 % of control; under setting [6], 103 % of control; under setting [14], 101 % of control; under setting [20], 103 % of control; under setting [15], 98 % of control.

`C=C(CCCCCCCCCCCCCCCC)C(=O)O`: the T/C reads like this: (dose: 25.0 mg/kg/injection, schedule: Q04DX002 (ip), vehicle: saline with Tween-80) 90 % of control; (dose: 50.0 mg/kg/injection, schedule: Q04DX002 (ip), vehicle: saline with Tween-80) 87 % of control; under setting [7], 94 % of control.

Turning to `CC(C)C(C)(C)OC(=O)c1ccc([N+](=O)[O-])cc1`, the T/C by setting is: under setting [12], 100 % of control; under setting [13], 96 % of control; (dose: 400.0 mg/kg/injection, schedule: Q01DX001 (ip), vehicle: saline) 98 % of control.

On to `COc1cc(/C=C(\C#N)c2ccc([N+](=O)[O-])cc2)ccc1O`, for which the T/C was 100 % of control under setting [7], 87 % of control under setting [8] and 91 % of control under setting [9].

(Values after PubChem BioAssay AID256 (DTP/NCI, 2004).)
